ChEMBL document CHEMBL5291721, “A preclinical secondary pharmacology resource illuminates target-adverse drug reaction associations of marketed drugs” (Nat Commun, 2023)

What was measured:
[1] = biological target: Sodium-dependent serotonin transporter (Homo sapiens, UniProt P31645)
[2] = biological target: T1, Progesterone receptor (Homo sapiens, UniProt P06401); format: functional
T1 sequence (P06401 whole entry): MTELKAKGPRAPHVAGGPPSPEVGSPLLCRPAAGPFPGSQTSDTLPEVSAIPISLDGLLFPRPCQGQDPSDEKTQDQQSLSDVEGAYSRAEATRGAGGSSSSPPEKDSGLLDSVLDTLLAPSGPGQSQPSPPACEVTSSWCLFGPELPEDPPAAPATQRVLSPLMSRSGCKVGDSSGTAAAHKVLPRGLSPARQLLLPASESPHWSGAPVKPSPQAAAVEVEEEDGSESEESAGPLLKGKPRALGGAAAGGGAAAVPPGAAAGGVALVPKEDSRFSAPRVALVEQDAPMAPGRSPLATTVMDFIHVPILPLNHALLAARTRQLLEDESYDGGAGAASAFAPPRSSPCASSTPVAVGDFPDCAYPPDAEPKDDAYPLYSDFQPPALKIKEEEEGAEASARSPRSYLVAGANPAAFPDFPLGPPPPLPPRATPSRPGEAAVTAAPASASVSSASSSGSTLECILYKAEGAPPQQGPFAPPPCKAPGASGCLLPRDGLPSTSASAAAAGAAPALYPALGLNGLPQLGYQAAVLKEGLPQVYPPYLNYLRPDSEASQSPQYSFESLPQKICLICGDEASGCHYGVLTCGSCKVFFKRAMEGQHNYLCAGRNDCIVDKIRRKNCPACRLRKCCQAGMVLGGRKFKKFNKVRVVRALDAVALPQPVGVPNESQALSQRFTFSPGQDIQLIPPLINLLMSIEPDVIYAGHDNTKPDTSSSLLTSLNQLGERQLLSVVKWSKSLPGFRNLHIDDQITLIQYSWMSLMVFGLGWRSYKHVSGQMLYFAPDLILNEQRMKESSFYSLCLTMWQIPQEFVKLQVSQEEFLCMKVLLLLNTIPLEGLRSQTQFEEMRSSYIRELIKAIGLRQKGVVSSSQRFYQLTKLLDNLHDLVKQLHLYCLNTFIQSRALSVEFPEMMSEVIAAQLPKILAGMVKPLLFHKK

[3] = biological target: T2, Estrogen receptor (Homo sapiens, UniProt P03372)
T2 sequence (P03372 whole entry): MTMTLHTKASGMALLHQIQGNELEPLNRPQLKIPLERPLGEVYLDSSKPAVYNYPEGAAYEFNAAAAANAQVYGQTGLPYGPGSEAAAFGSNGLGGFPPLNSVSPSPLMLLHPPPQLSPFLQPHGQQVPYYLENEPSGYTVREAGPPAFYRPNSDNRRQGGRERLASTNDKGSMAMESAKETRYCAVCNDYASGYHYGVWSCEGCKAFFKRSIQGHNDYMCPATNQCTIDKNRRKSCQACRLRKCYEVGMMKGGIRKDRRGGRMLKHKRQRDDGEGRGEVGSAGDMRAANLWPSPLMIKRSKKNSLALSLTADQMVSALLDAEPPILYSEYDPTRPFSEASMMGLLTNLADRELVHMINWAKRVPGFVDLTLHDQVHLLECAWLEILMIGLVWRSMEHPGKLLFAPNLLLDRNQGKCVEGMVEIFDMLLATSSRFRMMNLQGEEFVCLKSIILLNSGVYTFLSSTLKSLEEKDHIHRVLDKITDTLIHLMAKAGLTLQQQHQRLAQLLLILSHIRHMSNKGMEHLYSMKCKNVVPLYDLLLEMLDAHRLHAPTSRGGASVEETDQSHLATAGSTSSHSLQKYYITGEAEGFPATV

[4] = biological target: T3, Neuropeptide Y receptor type 2 (Homo sapiens, UniProt P49146)
T3 sequence (P49146 whole entry): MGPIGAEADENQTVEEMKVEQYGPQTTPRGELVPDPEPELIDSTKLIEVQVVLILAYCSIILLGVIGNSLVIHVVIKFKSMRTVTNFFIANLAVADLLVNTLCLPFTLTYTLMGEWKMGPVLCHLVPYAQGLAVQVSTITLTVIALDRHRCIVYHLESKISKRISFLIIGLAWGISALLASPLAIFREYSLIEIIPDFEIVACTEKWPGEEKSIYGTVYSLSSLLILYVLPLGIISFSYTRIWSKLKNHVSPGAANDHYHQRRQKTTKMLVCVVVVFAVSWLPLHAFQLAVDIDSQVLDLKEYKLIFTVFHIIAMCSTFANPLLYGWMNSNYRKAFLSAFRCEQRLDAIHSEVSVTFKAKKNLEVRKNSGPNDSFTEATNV

[5] = biological target: Estrogen receptor beta (Homo sapiens, UniProt Q92731)
[6] = biological target: T4, 5-hydroxytryptamine receptor 1A (Homo sapiens, UniProt P08908); format: functional, cell-based
T4 sequence (P08908 whole entry): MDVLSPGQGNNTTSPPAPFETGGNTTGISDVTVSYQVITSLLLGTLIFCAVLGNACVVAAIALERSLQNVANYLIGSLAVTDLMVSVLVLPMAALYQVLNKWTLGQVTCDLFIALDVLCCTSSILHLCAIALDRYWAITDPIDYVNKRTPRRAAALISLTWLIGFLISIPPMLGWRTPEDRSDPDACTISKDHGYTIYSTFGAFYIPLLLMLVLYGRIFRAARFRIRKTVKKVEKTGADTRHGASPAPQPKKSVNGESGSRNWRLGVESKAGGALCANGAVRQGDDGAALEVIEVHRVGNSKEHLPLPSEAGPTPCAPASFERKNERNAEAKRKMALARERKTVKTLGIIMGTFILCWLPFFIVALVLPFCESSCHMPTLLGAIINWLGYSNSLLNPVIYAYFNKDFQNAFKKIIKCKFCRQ

[7] = biological target: 5-hydroxytryptamine receptor 2A (Homo sapiens, UniProt P28223); format: functional, cell-based
[8] = biological target: Glucagon receptor (Homo sapiens, UniProt P47871)
[9] = biological target: T5, Mu-type opioid receptor (Homo sapiens, UniProt P35372); assay: biochemical; format: functional
[10] = biological target: T4, 5-hydroxytryptamine receptor 1A
[11] = biological target: T5, Mu-type opioid receptor
[12] = biological target: T1, Progesterone receptor
[13] = biological target: Voltage-dependent N-type calcium channel subunit alpha-1B (Rattus norvegicus, UniProt Q02294); format: functional
[14] = biological target: Gamma-aminobutyric acid receptor subunit alpha-1/alpha-2/beta-2/gamma-2 (Homo sapiens, UniProt P14867+P18507+P47869+P47870); format: functional, cell-based
Also: assay procedure not described here.

T5 sequence (P35372 whole entry): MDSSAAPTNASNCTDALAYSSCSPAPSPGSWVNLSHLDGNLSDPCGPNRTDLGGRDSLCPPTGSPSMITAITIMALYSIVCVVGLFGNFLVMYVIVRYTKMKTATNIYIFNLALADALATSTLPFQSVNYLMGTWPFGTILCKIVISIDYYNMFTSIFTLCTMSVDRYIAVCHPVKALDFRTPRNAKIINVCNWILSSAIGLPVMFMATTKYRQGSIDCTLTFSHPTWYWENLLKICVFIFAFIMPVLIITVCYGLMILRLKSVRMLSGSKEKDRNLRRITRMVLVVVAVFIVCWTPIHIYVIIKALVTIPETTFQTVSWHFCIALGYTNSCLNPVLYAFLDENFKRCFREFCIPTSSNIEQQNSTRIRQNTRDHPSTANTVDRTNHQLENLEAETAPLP
Sodium-dependent serotonin transporter, sequence (P31645 whole entry): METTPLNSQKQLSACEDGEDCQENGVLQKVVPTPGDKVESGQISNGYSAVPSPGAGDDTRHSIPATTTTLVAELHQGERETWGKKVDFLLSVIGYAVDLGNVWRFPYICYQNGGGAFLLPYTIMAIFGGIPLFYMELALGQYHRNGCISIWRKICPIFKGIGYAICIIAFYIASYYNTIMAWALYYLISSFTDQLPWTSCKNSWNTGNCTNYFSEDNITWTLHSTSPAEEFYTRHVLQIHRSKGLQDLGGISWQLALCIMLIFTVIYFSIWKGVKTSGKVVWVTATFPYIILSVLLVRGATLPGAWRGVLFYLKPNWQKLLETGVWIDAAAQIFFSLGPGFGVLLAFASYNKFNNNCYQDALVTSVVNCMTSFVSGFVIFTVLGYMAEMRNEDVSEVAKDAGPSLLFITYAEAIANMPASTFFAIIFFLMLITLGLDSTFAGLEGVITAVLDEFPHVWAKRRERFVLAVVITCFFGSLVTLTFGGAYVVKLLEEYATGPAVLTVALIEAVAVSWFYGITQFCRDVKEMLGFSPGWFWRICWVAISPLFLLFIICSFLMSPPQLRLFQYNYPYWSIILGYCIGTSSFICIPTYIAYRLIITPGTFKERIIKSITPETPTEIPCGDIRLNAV
5-hydroxytryptamine receptor 2A, sequence (P28223 whole entry): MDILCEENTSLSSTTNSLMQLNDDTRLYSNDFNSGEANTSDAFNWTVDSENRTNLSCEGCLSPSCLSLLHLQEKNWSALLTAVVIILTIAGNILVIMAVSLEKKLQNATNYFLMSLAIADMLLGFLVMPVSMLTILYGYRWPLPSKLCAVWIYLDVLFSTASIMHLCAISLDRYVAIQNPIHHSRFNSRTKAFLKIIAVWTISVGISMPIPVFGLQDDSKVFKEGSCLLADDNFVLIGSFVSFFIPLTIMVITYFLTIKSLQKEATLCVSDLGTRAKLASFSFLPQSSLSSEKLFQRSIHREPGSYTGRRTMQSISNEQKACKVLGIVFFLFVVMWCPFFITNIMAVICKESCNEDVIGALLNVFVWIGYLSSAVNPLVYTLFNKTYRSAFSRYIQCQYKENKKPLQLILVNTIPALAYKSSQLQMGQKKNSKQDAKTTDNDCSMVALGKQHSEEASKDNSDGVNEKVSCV
Voltage-dependent N-type calcium channel subunit alpha-1B, sequence (Q02294 whole entry): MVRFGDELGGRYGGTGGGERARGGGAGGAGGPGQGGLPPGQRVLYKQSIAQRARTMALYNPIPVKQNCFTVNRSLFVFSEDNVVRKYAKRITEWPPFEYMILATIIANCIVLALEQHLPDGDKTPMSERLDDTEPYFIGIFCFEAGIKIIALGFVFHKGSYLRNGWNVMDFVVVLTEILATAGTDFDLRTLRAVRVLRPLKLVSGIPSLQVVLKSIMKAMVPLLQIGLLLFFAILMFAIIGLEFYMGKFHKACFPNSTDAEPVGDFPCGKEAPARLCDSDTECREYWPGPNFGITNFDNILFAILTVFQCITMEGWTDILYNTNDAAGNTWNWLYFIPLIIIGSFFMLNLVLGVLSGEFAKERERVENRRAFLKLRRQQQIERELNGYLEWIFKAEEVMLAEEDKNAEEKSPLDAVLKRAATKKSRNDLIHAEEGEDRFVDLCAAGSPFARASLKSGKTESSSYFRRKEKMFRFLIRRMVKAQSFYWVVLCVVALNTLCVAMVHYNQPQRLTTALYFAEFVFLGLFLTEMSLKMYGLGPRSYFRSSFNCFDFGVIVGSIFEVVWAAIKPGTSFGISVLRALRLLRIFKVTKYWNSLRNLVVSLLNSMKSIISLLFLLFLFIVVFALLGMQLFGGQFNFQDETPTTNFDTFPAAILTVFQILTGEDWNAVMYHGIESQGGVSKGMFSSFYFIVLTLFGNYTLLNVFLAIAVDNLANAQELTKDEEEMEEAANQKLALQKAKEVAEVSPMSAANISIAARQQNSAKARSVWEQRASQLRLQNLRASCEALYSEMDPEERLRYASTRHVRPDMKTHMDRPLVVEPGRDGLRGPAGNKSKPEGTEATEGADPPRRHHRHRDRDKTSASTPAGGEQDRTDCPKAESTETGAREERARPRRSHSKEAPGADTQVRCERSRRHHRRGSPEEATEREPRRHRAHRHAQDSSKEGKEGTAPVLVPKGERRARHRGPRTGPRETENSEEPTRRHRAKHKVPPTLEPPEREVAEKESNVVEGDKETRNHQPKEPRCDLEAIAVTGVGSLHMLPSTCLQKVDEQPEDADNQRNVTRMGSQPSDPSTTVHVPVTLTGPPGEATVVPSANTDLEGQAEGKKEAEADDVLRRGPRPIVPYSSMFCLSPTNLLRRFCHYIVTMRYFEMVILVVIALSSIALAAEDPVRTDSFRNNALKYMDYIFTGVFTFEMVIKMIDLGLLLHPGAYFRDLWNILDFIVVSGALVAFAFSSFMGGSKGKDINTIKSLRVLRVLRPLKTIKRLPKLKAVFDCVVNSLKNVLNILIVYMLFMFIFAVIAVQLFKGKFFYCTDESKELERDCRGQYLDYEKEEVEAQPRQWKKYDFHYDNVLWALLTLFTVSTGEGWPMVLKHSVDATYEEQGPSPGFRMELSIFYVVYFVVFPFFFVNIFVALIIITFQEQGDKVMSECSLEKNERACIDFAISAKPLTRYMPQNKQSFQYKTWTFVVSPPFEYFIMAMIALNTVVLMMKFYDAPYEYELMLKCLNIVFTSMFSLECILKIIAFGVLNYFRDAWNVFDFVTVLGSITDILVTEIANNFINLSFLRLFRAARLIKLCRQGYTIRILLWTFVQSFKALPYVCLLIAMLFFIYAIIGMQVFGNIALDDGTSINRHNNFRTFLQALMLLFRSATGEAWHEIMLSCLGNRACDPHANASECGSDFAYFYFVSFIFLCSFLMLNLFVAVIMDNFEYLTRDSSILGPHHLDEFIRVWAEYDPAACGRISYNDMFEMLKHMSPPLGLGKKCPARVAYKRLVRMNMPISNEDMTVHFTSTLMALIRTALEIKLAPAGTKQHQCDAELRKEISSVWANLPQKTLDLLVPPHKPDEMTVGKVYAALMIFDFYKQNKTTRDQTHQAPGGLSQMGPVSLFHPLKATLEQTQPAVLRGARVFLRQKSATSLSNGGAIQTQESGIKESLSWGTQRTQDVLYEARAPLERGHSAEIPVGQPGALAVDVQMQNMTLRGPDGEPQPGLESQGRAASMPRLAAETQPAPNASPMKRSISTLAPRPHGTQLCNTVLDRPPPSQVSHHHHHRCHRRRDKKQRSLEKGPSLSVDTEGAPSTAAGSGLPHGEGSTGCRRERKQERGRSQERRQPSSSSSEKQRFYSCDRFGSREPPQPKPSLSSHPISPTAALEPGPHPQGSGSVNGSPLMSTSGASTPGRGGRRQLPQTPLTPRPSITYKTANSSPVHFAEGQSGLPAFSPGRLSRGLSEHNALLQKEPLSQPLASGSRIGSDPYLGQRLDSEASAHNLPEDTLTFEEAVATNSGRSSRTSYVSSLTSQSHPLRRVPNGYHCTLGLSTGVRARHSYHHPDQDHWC
Estrogen receptor beta, sequence (Q92731 whole entry): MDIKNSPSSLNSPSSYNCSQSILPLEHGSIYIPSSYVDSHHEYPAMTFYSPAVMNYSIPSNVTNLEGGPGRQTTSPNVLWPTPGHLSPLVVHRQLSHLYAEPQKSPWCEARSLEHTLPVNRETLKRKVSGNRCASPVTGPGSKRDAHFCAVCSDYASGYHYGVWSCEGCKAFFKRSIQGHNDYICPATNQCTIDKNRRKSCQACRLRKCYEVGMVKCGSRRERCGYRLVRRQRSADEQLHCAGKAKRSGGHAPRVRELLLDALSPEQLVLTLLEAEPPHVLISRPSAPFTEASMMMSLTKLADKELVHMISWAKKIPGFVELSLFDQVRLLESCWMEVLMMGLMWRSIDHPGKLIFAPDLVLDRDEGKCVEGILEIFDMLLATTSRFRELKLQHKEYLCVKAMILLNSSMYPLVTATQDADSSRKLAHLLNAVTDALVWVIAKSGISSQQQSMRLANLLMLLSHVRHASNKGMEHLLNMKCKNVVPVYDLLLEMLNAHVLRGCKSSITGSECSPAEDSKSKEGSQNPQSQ
Glucagon receptor, sequence (P47871 whole entry): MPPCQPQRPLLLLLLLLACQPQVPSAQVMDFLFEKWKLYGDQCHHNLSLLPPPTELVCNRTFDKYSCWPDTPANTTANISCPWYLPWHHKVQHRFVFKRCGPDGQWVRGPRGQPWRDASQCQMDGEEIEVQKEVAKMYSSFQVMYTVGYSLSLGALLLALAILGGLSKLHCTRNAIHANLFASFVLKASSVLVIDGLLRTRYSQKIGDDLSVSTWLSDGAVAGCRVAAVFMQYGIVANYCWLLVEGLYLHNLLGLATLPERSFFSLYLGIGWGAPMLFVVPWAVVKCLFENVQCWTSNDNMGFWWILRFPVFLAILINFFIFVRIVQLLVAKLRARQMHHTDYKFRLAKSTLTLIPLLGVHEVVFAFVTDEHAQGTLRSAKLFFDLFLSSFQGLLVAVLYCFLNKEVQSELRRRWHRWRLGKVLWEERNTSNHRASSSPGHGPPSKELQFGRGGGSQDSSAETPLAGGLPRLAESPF

| Compound | AC50 [1] [µM] | AC50 [2] [µM] | AC50 [3] [µM] | AC50 [4] [µM] | AC50 [5] [µM] | AC50 [6] [µM] | AC50 [7] [µM] | AC50 [8] [µM] | AC50 [9] [µM] | AC50 [10] [µM] | AC50 [11] [µM] | AC50 [12] [µM] | AC50 [13] [µM] | AC50 [14] [µM] |
| --- | --- | --- | --- | --- | --- | --- | --- | --- | --- | --- | --- | --- | --- | --- |
| CCC(CC)(CC(=O)Nc1cccc(/C=C/c2nc(C3CCC3)cs2)c1)C(=O)O | > 30 | > 30 | > 30 | – | – | – | – | – | – | – | – | – | – | – |
| CCCCCNC(=N)N/N=C/c1c[nH]c2ccc(OC)cc12 [TEGASEROD] | 3.47 | 21 | – | > 30 | > 30 | 0.87 | 1.5 | > 30 | > 30 | 0.169 | 2.8 | > 30 | – | – |
| O=[N+]([O-])O[C@@H]1CO[C@H]2[C@@H]1OC[C@@H]2O [ISOSORBIDE MONONITRATE] | > 10 | – | > 30 | > 30 | > 30 | > 10 | – | > 30 | – | > 10 | > 30 | > 30 | > 10 | – |
| CN(C)CC/C=C1\c2ccccc2CSc2ccccc21 [DOTHIEPIN] | – | > 30 | > 30 | – | – | – | 4.8 | – | > 30 | – | – | – | – | – |
| CC[C@@H](C(N)=O)N1CCCC1=O | > 30 | > 30 | > 30 | – | – | > 30 | > 30 | – | > 30 | – | – | – | – | > 30 |
| Cc1oc(=O)oc1CN1CCN(c2cc3c(cc2F)c(=O)c(C(=O)O)c2n3C(C)S2)CC1 (configuration not stated) [PRULIFLOXACIN] | – | – | – | – | – | – | > 30 | – | > 30 | – | – | – | – | > 30 |
| COc1cc2nc(N3CCN(C(=O)c4ccco4)CC3)nc(N)c2cc1OC [PRAZOSIN] | – | – | > 30 | > 30 | > 30 | – | – | > 30 | > 30 | – | 4.1 | > 30 | > 10 | – |
| NC1CCN(c2c(F)cc3c(=O)c(C(=O)O)cn(C4CC4)c3c2Cl)C1 (configuration not stated) [CLINAFLOXACIN] | – | – | – | – | – | – | – | – | – | – | – | – | – | > 300 |
| COc1ccccc1N1CCN(CC(O)COc2cccc3ccccc23)CC1 (configuration not stated) [NAFTOPIDIL] | – | > 30 | – | – | – | 1.2 | 9.2 | – | 26 | – | – | – | – | – |
| CCOc1ccc(Cc2cc([C@@H]3O[C@H](CO)[C@@H](O)[C@H](O)[C@H]3O)ccc2Cl)cc1 [DAPAGLIFLOZIN] | – | – | > 30 | – | – | – | – | – | – | > 10 | > 30 | > 30 | > 10 | – |
| COc1ccc(C(=O)Nc2ccccc2CCC2CCCCN2C)cc1 (configuration not stated) [ENCAINIDE] | > 10 | – | > 30 | > 30 | > 30 | > 10 | 2.2 | > 30 | – | > 10 | > 30 | > 30 | > 10 | – |
| O=[N+]([O-])c1cn2c(n1)OC[C@@H](OCc1ccc(OC(F)(F)F)cc1)C2 [PRETOMANID] | > 10 | – | – | > 30 | – | – | – | > 30 | – | > 10 | > 10 | – | > 10 | – |
| CCOc1ccccc1OCC1CNCCO1 (configuration not stated) [VILOXAZINE] | – | – | > 30 | > 30 | > 30 | > 10 | – | > 30 | – | > 10 | > 10 | > 30 | > 10 | – |
| COC1=C(OC)C(=O)C(C/C=C(\C)CC/C=C(\C)CC/C=C(\C)CC/C=C(\C)CC/C=C(\C)CC/C=C(\C)CC/C=C(\C)CC/C=C(\C)CC/C=C(\C)CCC=C(C)C)=C(C)C1=O [UBIDECARENONE] | – | – | – | – | – | – | > 30 | – | > 30 | – | – | – | – | > 30 |
| CN(C)CCc1c[nH]c2ccc(C[C@H]3COC(=O)N3)cc12 [ZOLMITRIPTAN] | > 30 | > 30 | > 30 | – | – | – | – | – | > 30 | – | – | – | – | > 30 |
| C=CCN1C[C@H](C(=O)N(CCCN(C)C)C(=O)NCC)C[C@@H]2c3cccc4[nH]cc(c34)C[C@H]21 [CABERGOLINE] | 23.4 | > 10 | > 10 | – | – | – | – | – | – | 0.073 | > 30 | – | – | > 30 |
| CCCC1O[C@@H]2C[C@H]3[C@@H]4CCC5=CC(=O)C=C[C@]5(C)[C@H]4[C@@H](O)C[C@]3(C)[C@]2(C(=O)CO)O1 (some centres not stated) [BUDESONIDE] | – | – | – | – | – | > 10 | – | – | – | – | > 30 | – | – | – |
| CN1CCN(C2=Nc3ccccc3Sc3ccc(Cl)cc32)CC1 [CLOTHIAPINE] | – | – | – | – | – | – | 1 | – | 11 | – | – | – | – | > 30 |
| CN(C)CCC=C1c2ccccc2C=Cc2ccccc21 [CYCLOBENZAPRINE] | – | – | > 30 | > 30 | > 30 | > 10 | – | > 30 | – | 4.94 | > 10 | > 30 | > 10 | – |
| Cc1cc(C)c(NC(=O)CN(CC(=O)O)CC(=O)O)c(C)c1Br [MEBROFENIN] | – | – | – | – | – | – | > 30 | – | > 30 | – | – | – | – | > 30 |
| CC[C@H]1CN2CCc3cc(OC)c(OC)cc3[C@@H]2C[C@@H]1C[C@H]1NCCc2cc(OC)c(OC)cc21 [EMETINE] | – | > 30 | – | – | – | – | – | – | > 30 | – | 18 | – | – | > 30 |
